Results as given in patent US7432276B2, “ABCA1 elevating compounds” (CV Therapeutics, Inc., priority 2005, dated 2008).

These compounds were tested on ABCA1 mRNA (assay: ABCA1 mRNA induction in THP-1 cells, QuantiGene branched DNA assay). Conditions: 10 μM test compound, 18-20 hours.
Type: cell-based
Description: Modulation of expression of ABCA1 mRNA levels by the compounds of the invention was determined in the following assays.
Induction of ABC1 in THP-1 cells, was measured using QuantiGene® branched DNA assay as per manufacturer's instructions. Cultures of THP-1 were grown to subconfluence in DMEM/10% FBS before replacement with DMEM/BSA and 10 and 3 μM concentrations of the test compounds in DMSO for 18-20 hours. After treatment of cells with compounds, the cells were lysed with lysis buffer at 37° C. for 20 minutes. The cell lysate and ABCA1 specific probe (Genospectra, Inc., Fremont, Calif.) mix were added to the 96 well capture plate and hybridized at 53° C. for 16-18 hours. The signal was amplified using the amplifier and label probes provided with the QuantiGene® assay followed by addition of a luminescent alkaline phosphatase substrate, dioxitane. Luminescence was quantified in Victor V plate reader.
Step 1 • Cells are lysed to release mRNA in the presence of target probes. Target mRNA from lysed cells was then captured by hybridization and transferred to the Capture Plate.
Step 2 • Signal amplification was performed by hybridization of the bDNA Amplifier and Label Probe.
Step 3 • Addition of chemiluminescence substrate yielded a QuantiGene® signal proportional to the amount of mRNA present in the sample.
Table 1 presents the relative fold increase in ABCA1 expression over DMSO for various compounds of the invention when tested at a concentration of […].

Structure (SMILES)	ABCA1 Induction Fold Increase over DMSO Vehicle [FOLD INCREASE]
COc1cccc2c1C1Nc3ccc(C(F)(F)F)cc3C(C)(C)C1CO2 (stereo not drawn) [Number 44, 1-methoxy-7,7-dimethyl-9-(trifluoromethyl)-7,12,12a,6a-tetrahydrochromano[4,3-b]quinoline]	2.2
CC(C)=CCOc1cccc2c1OCC1C2Nc2ccc(C(O)(C(F)(F)F)C(F)(F)F)cc2C1(C)C (stereo not drawn) [Number 25, 2-[7,7-dimethyl-4-(3-methylbut-2-enyloxy)(7,12,12a,6a-tetrahydrochromano[4,3-b]quinolin-9-yl)]-1,1,1,3,3,3-hexafluoropropan-2-ol]	4.0
CCOc1ccc2c(c1)C(C)(C)[C@H]1COc3cccc(OC)c3[C@H]1N2 [Number 56, (12aS,6aR)-9-ethoxy-1-methoxy-7,7-dimethyl-7,12,12a,6a-tetrahydrochromano[4,3-b]quinoline]	4.8
COc1cccc2c1OC[C@H]1[C@@H]2Nc2ccc(C(=O)N3CCS(=O)(=O)CC3)cc2C1(C)C [Number 129, ((6aR,12aS)-6a,7,12,12a-tetrahydro-4-methoxy-7,7-dimethyl-6H-chromeno[4,3-b]quinolin-9-yl)(1,1-dione-1,4-thiazaperhydroin-yl)methanone]	4.3
CCOc1cccc2c1OCC1C2Nc2ccc(C(F)(F)F)cc2C1(C)C (stereo not drawn) [Number 41, 4-ethoxy-7,7-dimethyl-9-(trifluoromethyl)-7,12,12a,6a-tetrahydrochromano[4,3-b]quinoline]	2.1
Cc1c(C(=O)N2CCS(=O)(=O)CC2)cnn1-c1ccc2c(c1)C(C)(C)[C@H]1COc3cccc(F)c3[C@H]1N2 [Number 145, 1-((6aR,12aS)-6a,7,12,12a-tetrahydro-1-fluoro-7,7-dimethyl-6H-chromeno[4,3-b]quinolin-9-yl)1-5-methyl-1H-pyrazole-4-((1,1-dione-1,4-thiazaperhydroin-yl)methanone)]	4.5
COC(=O)CCc1ccc2c(c1)C1Nc3ccc(C(O)(C(F)(F)F)C(F)(F)F)cc3C(C)(C)C1CO2 (stereo not drawn) [Number 40, methyl 3-{7,7-dimethyl-9-[2,2,2-trifluoro-1-hydroxy-1-(trifluoromethyl)ethyl]-7,12,12a,6a-tetrahydrochromano[4,3-b]quinolin-2-yl}propanoate]	2.1
COc1cccc2c1[C@H]1Nc3ccc(Cc4nnn[nH]4)cc3C(C)(C)[C@H]1CO2 [Number 84, (12aS,6aR)-1-methoxy-7,7-dimethyl-9-(1,2,3,4-tetraazol-5-ylmethyl)-7,12,12a,6a-tetrahydrochromano[4,3-b]quinoline]	8.6
CC1(C)c2cc(C(O)(C(F)(F)F)C(F)(F)F)ccc2N[C@H]2c3cc(Br)ccc3OC[C@H]21 [Number 2, 2-((6aS,12aR)-2-bromo-7,7-dimethyl(7,12,12a,6a-tetrahydrochromano[4,3-b]quinolin-9-yl))-1,1,1,3,3,3-hexafluoropropan-2-ol]	5.1
CCS(=O)(=O)N1CCN(C(=O)c2cnn(-c3ccc4c(c3)C(C)(C)[C@H]3COc5cccc(OC)c5[C@H]3N4)c2C)CC1 [Number 140, 1-((6aR,12aS)-6a,7,12,12a-tetrahydro-1-methoxy-7,7-dimethyl-6H-chromeno[4,3-b]quinolin-9-yl)-5-methyl-1H-pyrazole-4-((4-ethanesulfonylpiperazin-1-yl)methanone)]	5.1
CC(C)=CCOC(=O)c1ccc2c(c1)C1Nc3ccc(C(O)(C(F)(F)F)C(F)(F)F)cc3C(C)(C)C1CO2 (stereo not drawn) [Number 13, 3-methylbut-2-enyl 7,7-dimethyl-9-[2,2,2-trifluoro-1-hydroxy-1-(trifluoromethyl)ethyl]-7,12,12a,6a-tetrahydrochromano[4,3-b]quinoline-2-carboxylate]	3.4
COc1cc(Br)cc2c1OC[C@H]1[C@H]2Nc2ccc(C(O)(C(F)(F)F)C(F)(F)F)cc2C1(C)C [Number 66, 2-((12aR,6aR)-2-bromo-4-methoxy-7,7-dimethyl(7,12,12a,6a-tetrahydrochromano[4,3-b]quinolin-9-yl))-1,1,1,3,3,3-hexafluoropropan-2-ol]	2.5
CNS(=O)(=O)Cc1ccc2c(c1)C(C)(C)C1COc3cccc(OC)c3C1N2 (stereo not drawn) [Number 89, {[(1-methoxy-7,7-dimethyl(7,12,12a,6a-tetrahydrochromano[4,3-b]quinolin-9-yl))methyl]sulfonyl}methylamine]	6.4
CCOc1cccc2c1OCC1C2Nc2ccc(C(O)(C(F)(F)F)C(F)(F)F)cc2C1(C)C (stereo not drawn) [Number 22, 2-(4-ethoxy-7,7-dimethyl(7,12,12a,6a-tetrahydrochromano[4,3-b]quinolin-9-yl))-1,1,1,3,3,3-hexafluoropropan-2-ol]	4.8
COc1cccc2c1OCC1C2Nc2ccc(C(O)(C(F)(F)F)C(F)(F)F)cc2C1(C)C (stereo not drawn) [Number 33, 1,1,1,3,3,3-hexafluoro-2-(4-methoxy-7,7-dimethyl(7,12,12a,6a-tetrahydrochromano[4,3-b]quinolin-9-yl))propan-2-ol]	6.4
Cc1cccc2c1OCC1C2Nc2ccc(C(N)=O)cc2C1(C)C (stereo not drawn) [Number 29, 4,7,7-trimethyl-7,12,12a,6a-tetrahydrochromano[4,3-b]quinoline-9-carboxamide]	5.8
COc1cccc2c1OC[C@@H]1[C@H]2Nc2ccccc2C1(C)C [Number 37, (6aS,12aR)-4-methoxy-7,7-dimethyl-7,12,12a,6a-tetrahydrochromano[4,3-b]quinoline]	8.3
COc1ccc(Br)c2c1OCC1C2Nc2ccc(C(N)=O)cc2C1(C)C (stereo not drawn) [Number 81, 1-bromo-4-methoxy-7,7-dimethyl-7,12,12a,6a-tetrahydrochromano[4,3-b]quinoline-9-carboxamide]	1.9
CC1(C)c2cc(C(O)(C(F)(F)F)C(F)(F)F)ccc2NC2c3cc(Cl)cc(Cl)c3OCC21 (stereo not drawn) [Number 68, 2-(2,4-dichloro-7,7-dimethyl(7,12,12a,6a-tetrahydrochromano[4,3-b]quinolin-9-yl))-1,1,1,3,3,3-hexafluoropropan-2-ol]	2.7
COc1cc(Cl)cc2c1OCC1C2Nc2ccc(NS(=O)(=O)c3ccc(C)cc3)cc2C1(C)C (stereo not drawn) [Number 105, (2-chloro-4-methoxy-7,7-dimethyl(7,12,12a,6a-tetrahydrochromano[4,3-b]quinolin-9-yl))[(4-methylphenyl)sulfonyl]amine]	3.6
COc1cccc2c1[C@H]1Nc3ccc(-c4ccc(C(F)(F)F)cc4)cc3C(C)(C)[C@@H]1CO2 [Number 93, (12aS,6aS)-1-methoxy-7,7-dimethyl-9-[4-(trifluoromethyl)phenyl]-7,12,12a,6a-tetrahydrochromano[4,3-b]quinoline]	6.8

Same assay, conditions: Homo sapiens, 10 μM test compound, 18-20 hours, read-out: ABCA1 Induction Fold Increase over DMSO Vehicle

Structure (SMILES)	fold induction at 10 µM
COc1cccc2c1[C@H]1Nc3ccc(-n4ncc(C(=O)O)c4C)cc3C(C)(C)[C@H]1CO2 [Number 118, 1-((6aR,12aS)-6a,7,12,12a-tetrahydro-1-methoxy-7,7-dimethyl-6H-chromeno[4,3-b]quinolin-9-yl)-5-methyl-1H-pyrazole-4-carboxylic acid]	4
COc1cccc2c1OC[C@@H]1[C@@H]2Nc2ccc(C(=O)N3CCOCC3)cc2C1(C)C [Number 120, ((6aS,12aS)-6a,7,12,12a-tetrahydro-4-methoxy-7,7-dimethyl-6H-chromeno[4,3-b]quinolin-9-yl)(morpholino)methanone]	4.2
COc1cc(Br)cc2c1OC[C@H]1[C@@H]2Nc2ccc(-c3cnco3)cc2C1(C)C [Number 149, (6aR,12aS)-2-bromo-6a,7,12,12a-tetrahydro-4-methoxy-7,7-dimethyl-9-(oxazol-5-yl)-6H-chromeno[4,3-b]quinoline]	5.5
CCCCN1c2ccccc2C(C)(C)[C@@H]2COc3cccc(OC)c3[C@H]21 [Number 175, (6aS,12aS)-12-butyl-6a,7,12,12a-tetrahydro-1-methoxy-7,7-dimethyl-6H-chromeno[4,3-b]quinoline]	1.5
CCS(=O)(=O)N1CCN(C(=O)c2ccc3c(c2)C(C)(C)[C@H]2COc4c(OC)cccc4[C@H]2N3)CC1 [Number 134, ((6aR,12aS)-4-methoxy-6a,7,12,12a-tetrahydro-7,7-dimethyl-6H-chromeno[4,3-b]quinolin-9-yl)(4-ethanesulfonylpiperazin-1-yl)methanone]	5.8
COC(=O)c1ccc2c(c1)C(C)(C)[C@H]1COc3c(OC)cc(-c4c(C)noc4C)cc3[C@H]1N2 (racemic) [Number 162, (6aR,12aS)-methyl 6a,7,12,12a-tetrahydro-4-methoxy-7,7-dimethyl-2-(3,5-dimethylisoxazol-4-yl)-6H-chromeno[4,3-b]quinoline-9-carboxylate]	7.7
